Earlier results as cited in PMC7098970, “Neurosteroids as Selective Inhibitors of Glycine Receptor Activity: Structure-Activity Relationship Study on Endogenous Androstanes and Androstenes” (Frontiers in Molecular Neuroscience, 2020).
Counter-ions that a name gives are not always drawn.

Tests used:
[1] = test system: GABAAR; set-up: method as in Park-Chung et al., 1999; conditions: ref Park-Chung et al., 1999; cited from earlier work
[2] = test system: recombinant GlyRs; set-up: method as in Maksay et al. (2001); conditions: expressed in frog oocytes; ref Maksay et al. (2001); read-out: IC50 for inhibition of recombinant GlyRs; cited from earlier work

SMILES	Efficacy of potentiation of IGABA [1]	IC50 [2]
CC(O)C1CCC2C3CCC4CC(O)CCC4(C)C3CCC12C (stereo not drawn) [20α-hydroxy analog]	166%	–
CC(=O)[C@H]1CC[C@H]2[C@@H]3CC[C@H]4C[C@H](O)CC[C@]4(C)[C@H]3CC[C@]12C [3α-hydroxy-5α-pregnane-20-one]	1373%	–
C[C@]12CC[C@H](OS(=O)(=O)O)CC1=CCC1C2CC[C@]2(C)C(=O)CCC12 (stereo partly drawn) [DHEA sulfate]	–	2.5 to 6.3 µM
